From patent US20080312263A1, “PHARMACEUTICAL COMPOSITIONS FOR THE PREVENTION AND TREATMENT OF ATHEROSCLEROSIS” (UNIVERSITE RENE DESCARTES-PARIS 5, priority 2004, published 2008)
Entries after “also recorded” stand apart in the source; their conditions may differ.

What was measured:
Watanabe rabbits [1] = details: 16 weeks; cited from earlier work
Watanabe rabbits [2] = assay: Lipid profile (plasmatic cholesterol, triglycerides, HDL, LDL) in treated Watanabe rabbits; format: in vivo, rabbit
Method: 2. […] The cholesterol is assayed according to an enzymatic colorimetric test using a cholesterol-esterase and a cholesterol-oxidase, followed by a reaction with a peroxidase. The latter reacts with hydrogen peroxide and releases a red derivative the stain intensity of which (measured between 550 and 700 nm) is directly proportional to the cholesterol concentration. The triglyceride assay is also based on this principle, using a lipase which releases glycerol, and a peroxidase which reacts with the hydrogen peroxide and forms a red compound. The HDL cholesterol is assayed by an enzymatic calorimetric test in two phases. The first selects the different lipid fractions by means of dextran sulphate. […] The results are expressed in mmol/l. The kits necessary for all these assays are supplied by RANDOX (Montpellier, France).

[3] = tested on: New Zealand White rabbits; details: 2.5 mg/kg/day; cited from earlier work
New Zealand White rabbit = details: cited from earlier work
[4] = tested on: hypercholesterolemic rabbits; details: enriched diet over 12 to 16 weeks; cited from earlier work
[5] = rabbit, in vivo
Method: Each animal is placed in an individual cage and receives a food ration of 200 g to 250 g per day.
(§1) The food intake is measured daily and the animals are weighed once a week. Plasma samples are taken every fifteen days from the marginal ear vein. The blood, collected in heparin tubes, is centrifuged (4° C., 2000 g, 15 minutes). Part of the plasma is deproteinized by a solution of sulphosalicylic acid (30%) then divided into aliquot fractions with a view to an assay of the amino acids. The remainder of the plasma is aliquoted into several fractions of about 200 μl, and stored at −80° C.
The plasmatic arginine, ornithine and citrulline concentrations are determined on a JEOL (Tokyo, Japan) amino acid analyzer. The amino acids are separated by cation-exchange chromatography. On leaving the column, they are developed by a ninhydrin stain reaction. The reaction obtained is quantified by photometry at 570 and 440 nm. The results are expressed in μmol/l.

[6] = Monitoring of the animals: weight and food intake; format: in vivo, rabbit; details: not included in the study
Method: Twenty-four Watanabe rabbits (Centre de Production Animale, Olivet, France) which are hyperlipidaemic due to an hereditary LDL-receptor (LDL-R) deficiency, homozygous, and six weeks old, are used. Each animal is placed in an individual cage and receives a food ration of 200 g to 250 g per day.
as §1

Watanabe rabbits [7] = assay: Macroscopic study of the aortas: surface area of the lesions by planimetry; format: in vivo, rabbit
Method: After eight weeks, a sampling of serum (about 1 ml) is carried out then the animals are anaesthetized with an injection of heparinized pentobarbital, and finally sacrificed.
On the day of sacrifice, after anaesthesia, in the shortest possible time, the animal is opened along the whole length of the cervico-thoracic region. The aorta is incised as low as possible. Using curved scissors, the aorta is removed from the aortic arch as far as the level of the iliac bifurcation following the vertebral column. The aorta is first cleaned in physiological serum and the fatty tissues are removed from its external tunica. It is fixed for 20 minutes in a 2% paraformaldehyde-2% glutaraldehyde mixture then opened along its length. It is then again immersed in the same fixer for 24 hours, after which the aorta is rinsed in 70% ethanol, then stained with Soudan IV for 15 minutes. It is once again rinsed in 80% ethanol for 20 minutes then under running water for 1 hour (22). […] The images are analyzed by means of planimetry software (Scion Image) which makes it possible to determine the surface of the lesions. Finally the aorta is fixed in the same fixer with a view to microscopic study.

## O=C(O)C[C@H](O)C[C@H](O)/C=C/c1c(C2CC2)nc2ccccc2c1-c1ccc(F)cc1 [pitavastatin]
Watanabe rabbits [1]
  reduction in plasmatic cholesterol: 28.6%

## CC(C)c1c(C(=O)Nc2ccccc2)c(-c2ccccc2)c(-c2ccc(F)cc2)n1CC[C@@H](O)C[C@@H](O)CC(=O)O [atorvastatin, Atorvastatin, reference compound]
Watanabe rabbits [2]; FIG. 6, during treatment
  effect on LDL concentration: induces a reduction
Watanabe rabbits [2]; LDL calculated by Friedewald formula, between T0 and T8
  reduction of the LDL fraction: 27.16%
[3]
  size of the lesions: reduction in the size of the lesions

## CC[C@H](C)C(=O)O[C@H]1C[C@@H](C)C=C2C=C[C@H](C)[C@H](CC[C@@H]3C[C@@H](O)CC(=O)O3)[C@H]21 [lovastatin]
New Zealand White rabbit; 16 weeks, New Zealand White rabbit
  reduction in cholesterol: 32%
New Zealand White rabbit; New Zealand White rabbits
  plaque progression: slowed down the plaque progression

## N=C(N)NCCC[C@H](N)C(=O)O [arginine, L-Arginine]
Watanabe rabbits [2]; 8 weeks treatment, versus control at T8, FIG. 3
  effect on the plasmatic cholesterol: no effect
Watanabe rabbits [2]; arginine diet alone
  effect on the lipid profile: no appreciable effect
Watanabe rabbits [2]; between T0 and T8
  increase in the plasmatic cholesterol concentration: 30%
Watanabe rabbits [2]; between T0 and T8, FIG. 4
  plasmatic triglycerides concentration, course: increases with age; also recorded: increase by more than half
[4]
  atheromatous plaque area: stabilization
[5]
  L-Arginine concentration in general: doubled
  plasmatic arginine concentration, at T4: doubled
  plasmatic arginine concentration, at T8: drops
[6]
  animals died before the end of the protocol: two animals
Watanabe rabbits [7]; T8
  lesion surface smaller than the control by a factor: 1.3
Watanabe rabbits [7]; T8, versus the control, FIG. 10
  surface area of the lesions (whole aorta): smaller
Watanabe rabbits [7]; T8, FIG. 11
  surface area of the lesions, distal half of the aorta: no effect
